In patent EP3556748A1, “HYDROXYPHENYL-TRIAZINE UV ABSORBERS” (BASF SE, priority 2018, dated 2019):

Experiment: Solubility testing in cosmetic solvents / emollients (clear solution)
Format: physicochemical
Details: 25°C
Experimental: The UV absorber mixture is suspended in 1200mg solvent in a glass container (sonication bath, vortex shaker). A magnetic stirring bar is added. The container is closed and stirred over night at room temperature (20-35°C).
Specification: clear solution
The solubility of Tinosorb S was determined as described in SOFW-Journal, 139, 7-2013, page 7-14.

CCCCC(CC)COc1ccc(-c2nc(-c3ccc(OC)cc3)nc(-c3ccc(OCC(CC)CCCC)cc3O)n2)c(O)c1 (centres unmarked) [Tinosorb S, Bis-Ethylhexyloxyphenol Methoxyphenyl Triazine]
Solubility (Cetiol AB (C12-15 Alkyl Benzoate)): 10% w/w | Solubility (Cetiol B (Dibutyl Adipate)): 12% w/w | Solubility (Cetiol CC (Dicaprylyl Carbonate)): 9% w/w | Solubility (Cetiol Ultimate (Undecane and Tridecane)): 1% w/w | Solubility (Dub DBS (Dibutyl Sebacate)): 9% w/w | Solubility (Finsolv EB: Ethylhexyl Benzoate): 17% w/w | Solubility (Myritol 318 (Caprylic/Capric Triglyceride)): 5% w/w | Solubility (Myritol 331 (Cocoglycerides)): 5% w/w
